From publication PMC8745332, “Synthesis, Molecular Docking and Biological Characterization of Pyrazine Linked 2-Aminobenzamides as New Class I Selective Histone Deacetylase (HDAC) Inhibitors with Anti-Leukemic Activity” (International Journal of Molecular Sciences, 2021)

Tests used:
human HDAC2 = molecular target: T1, human HDAC2 (Homo sapiens, UniProt Q92769); assay: In vitro HDAC2 inhibition assay, fluorogenic p53 peptide Ac-RHKK(Acetyl)-AMC; type: biochemical; details: for inhibition at 1 µM: read-out: HDAC2 % inhibition @ 1 µM; for IC50: 3 nM HDAC2, 20 µM substrate, 30 min, 37 °C
T1 construct: purchased ENZO Life Sciences AG (Lausen, CH)
T1 sequence (Q92769 whole entry): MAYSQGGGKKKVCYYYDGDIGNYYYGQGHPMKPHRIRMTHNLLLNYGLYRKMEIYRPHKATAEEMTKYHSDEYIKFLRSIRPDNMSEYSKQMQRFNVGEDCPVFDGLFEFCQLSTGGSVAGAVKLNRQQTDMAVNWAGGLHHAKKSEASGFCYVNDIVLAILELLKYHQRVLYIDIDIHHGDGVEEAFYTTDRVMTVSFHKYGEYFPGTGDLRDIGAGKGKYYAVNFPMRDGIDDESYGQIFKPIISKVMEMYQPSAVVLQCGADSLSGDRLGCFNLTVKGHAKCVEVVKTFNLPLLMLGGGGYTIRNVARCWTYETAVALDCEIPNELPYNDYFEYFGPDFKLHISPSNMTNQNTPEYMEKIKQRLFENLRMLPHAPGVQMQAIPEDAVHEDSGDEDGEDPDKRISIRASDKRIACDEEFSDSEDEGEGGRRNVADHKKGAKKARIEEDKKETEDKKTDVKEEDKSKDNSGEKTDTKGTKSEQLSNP
Method: (§1) Recombinant human HDAC1, HDAC2, and HDAC3/NCOR1 were purchased from ENZO Life Sciences AG (Lausen, CH). Recombinant human HDAC 4, HDAC5, HDAC7, HDAC9 and HDAC11 were produced by Barinka lab in Prague, as described before. Recombinant human HDAC8 was produced by Romier et al. (IGBMC, Univ. Strasbourg), as described in [55].
(§2) The in vitro testing on recombinant HDACs 1-3 were performed with a fluorogenic peptide derived from p53 (Ac-RHKK(Acetyl)-AMC). The measurements were performed in an assay buffer (50 mM Hepes, 150 mM NaCl, 5 mM MgCl2, 1 mM TCEP and 0.2 mg/mL BSA, pH 7.4 adjusted with NaOH) at 37 °C. Inhibitors at different concentrations were incubated with 10 nM HDAC1, 3 nM HDAC2 or 3 nM HDAC3 (final concentration) for at least 5 min. The reaction was started with the addition of the fluorogenic substrate (20 µM final concentration) and incubated for 30 min for HDAC2 and HDAC3 and 90 min for HDAC1. The reaction was stopped with a solution of 1 mg/mL trypsin and 20 µM SAHA in 1 mM HCl and incubated for 1 h at 37 °C. […] The received fluorescence intensities were normalized with uninhibited reaction as 100% and the reaction without enzyme as 0%. A nonlinear regression analysis was done to determine the IC50 value.

human HDAC1 = molecular target: T2, human HDAC1 (Homo sapiens, UniProt Q13547); assay: In vitro HDAC1 inhibition assay, fluorogenic p53 peptide Ac-RHKK(Acetyl)-AMC; type: biochemical; details: for inhibition at 1 µM: read-out: HDAC1 % inhibition @ 1 µM; for IC50: 10 nM HDAC1, 20 µM substrate, 90 min, 37 °C
T2 construct: purchased ENZO Life Sciences AG (Lausen, CH)
T2 sequence (Q13547 whole entry): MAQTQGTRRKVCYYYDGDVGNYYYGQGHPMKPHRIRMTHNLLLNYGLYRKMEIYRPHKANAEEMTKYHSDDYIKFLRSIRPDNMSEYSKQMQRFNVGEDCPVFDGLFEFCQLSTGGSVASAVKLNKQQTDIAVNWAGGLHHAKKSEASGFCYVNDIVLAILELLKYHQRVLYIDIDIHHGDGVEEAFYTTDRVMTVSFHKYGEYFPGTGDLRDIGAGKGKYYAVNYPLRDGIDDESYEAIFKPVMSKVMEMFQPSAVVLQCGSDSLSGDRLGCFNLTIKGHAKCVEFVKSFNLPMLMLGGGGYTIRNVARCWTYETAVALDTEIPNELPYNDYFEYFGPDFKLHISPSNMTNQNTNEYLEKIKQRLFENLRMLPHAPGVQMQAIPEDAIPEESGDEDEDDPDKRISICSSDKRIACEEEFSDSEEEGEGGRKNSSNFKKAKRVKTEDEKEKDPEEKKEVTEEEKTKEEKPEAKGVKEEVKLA
Method: as §1, §2

human HDAC3/NCOR1 = molecular target: T3, human HDAC3/NCOR1 (Homo sapiens, UniProt O15379); assay: In vitro HDAC3 inhibition assay, fluorogenic p53 peptide Ac-RHKK(Acetyl)-AMC; type: biochemical; details: for inhibition at 1 µM: read-out: HDAC3 % inhibition @ 1 µM; for IC50: 3 nM HDAC3, 20 µM substrate, 30 min, 37 °C
T3 construct: purchased ENZO Life Sciences AG (Lausen, CH)
T3 sequence (O15379 whole entry): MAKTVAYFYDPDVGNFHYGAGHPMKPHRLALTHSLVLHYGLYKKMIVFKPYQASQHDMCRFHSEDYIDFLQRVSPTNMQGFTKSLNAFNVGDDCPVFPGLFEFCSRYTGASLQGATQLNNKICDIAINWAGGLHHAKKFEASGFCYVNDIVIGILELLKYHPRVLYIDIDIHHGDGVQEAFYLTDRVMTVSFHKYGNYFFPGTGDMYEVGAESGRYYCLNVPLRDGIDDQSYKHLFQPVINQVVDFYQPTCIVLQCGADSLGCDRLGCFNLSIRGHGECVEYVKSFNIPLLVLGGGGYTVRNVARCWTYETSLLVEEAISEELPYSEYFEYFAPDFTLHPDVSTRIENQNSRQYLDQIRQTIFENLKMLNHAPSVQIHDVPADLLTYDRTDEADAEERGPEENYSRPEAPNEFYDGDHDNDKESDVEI
T3 sequence (O75376 395-489 partner limits assumed): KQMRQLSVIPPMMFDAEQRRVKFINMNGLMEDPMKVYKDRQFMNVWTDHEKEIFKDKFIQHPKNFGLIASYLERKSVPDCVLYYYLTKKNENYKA
Method: as §1, §2

in vitro = details: human, HEK293 cells
Method: The cells were incubated for 48 h with the HDACi at a concentration of 50 µM, and cell viability was determined by the Alamar Blue assay.
To determine the cytotoxicity of the developed compounds on the human epithelial kidney, cell line HEK293 was used. HEK293 cells (DSMZ Braunschweig, ACC305) were incubated at 37 °C in a humidified incubator with 5% CO2 in Dulbecco’s Modified Eagle Medium (DMEM) supplemented with 10% FCS and 5 mM glutamine. Cells were seeded out at 1.5 x 10^3 cells per well in a 96-well cell culture plate (TPP, Switzerland). The compounds to be tested were added immediately to the medium at 50 µM. After 24 h, Alamar Blue reagent (Invitrogen, CA) was added according to the manufacturer’s instructions and incubated again for 21 h before samples were analyzed. Detection of viable cells which convert the resazurine reagent into the highly fluorescent resorufin was performed by using a FLUOstarOPTIMA microplate reader (BMG Labtec) with the following filter set: Ex 530 nm/Em 590 nm. Measurements were performed in triplicate and data are means with standard deviation <12%.

| SMILES | inhibition at 1 µM (human HDAC2) [%] | inhibition at 1 µM (human HDAC1) [%] | inhibition at 1 µM (human HDAC3/NCOR1) [%] | IC50 (human HDAC2) [µM] | IC50 (human HDAC1) [µM] | IC50 (human HDAC3/NCOR1) [µM] | viability at 48 h, 50 µM (in vitro) [%] |
| --- | --- | --- | --- | --- | --- | --- | --- |
| Nc1ccc(C(F)(F)F)cc1NC(=O)c1cnc(N2CCNCC2)cn1 [27a, N-(2-amino-5-(trifluoromethyl)phenyl)-5-(piperazin-1-yl)pyrazine-2-carboxamide] | 0 | 0 | 0 |  |  |  |  |
| CN1CCN(c2cnc(C(=O)Nc3ccccc3N)cn2)CC1 [19o, N-(2-aminophenyl)-5-(4-methylpiperazin-1-yl)pyrazine-2-carboxamide] | 15 | 27 | 30 |  |  |  |  |
| Nc1cc(F)c(F)cc1NC(=O)c1cnc(N2CCN(CCc3c[nH]c4ccccc34)CC2)cn1 [19h] |  |  |  | 0.74 ± 0.03 | 0.81 ± 0.07 | 0.57 ± 0.02 | 54.5 |
| Cn1cc(CCN2CCN(c3cnc(C(=O)Nc4cc(F)ccc4N)cn3)CC2)c2ccccc21 [23c, N-(2-Amino-5-fluorophenyl)-5-(4-(2-(1-methyl-1H-indol-3-yl)ethyl)piperazin-1-yl)pyrazine-2-carboxamide] |  |  |  | 1.37 ± 0.08 | 0.33 ± 0.02 | 0.59 ± 0.04 | 55.7 |
| CN1CCN(c2ncc(C(=O)Nc3ccccc3N)cn2)CC1 [19n, N-(2-aminophenyl)-2-(4-methylpiperazin-1-yl)pyrimidine-5-carboxamide] | 7 | 5 | 13 |  |  |  |  |
| Cc1ccc(NC(=O)c2cnc(N3CCNCC3)cn2)c(N)c1 [27b, N-(2-amino-4-methylphenyl)-5-(piperazin-1-yl)pyrazine-2-carboxamide] | 0 | 0 | 0 |  |  |  |  |
| Cn1cc(CN2CCN(c3cnc(C(=O)Nc4cc(F)c(F)cc4N)cn3)CC2)c2ccccc21 [19l] |  |  |  | 0.56 ± 0.02 | 0.29 ± 0.03 | 0.81 ± 0.05 | 20.1 |
| Cn1cc(CCN2CCN(c3cnc(C(=O)Nc4ccc(F)cc4N)cn3)CC2)c2ccccc21 [19m, N-(2-Amino-4-fluorophenyl)-5-(4-(2-(1-methyl-1H-indol-3-yl)ethyl)piperazin-1-yl)pyrazine-2-carboxamide] |  |  |  | 1.48 ± 0.19 | 0.4 ± 0.06 | 0.4 ± 0.02 | 52.5 |
| Nc1cc(Cl)ccc1NC(=O)c1cnc(N2CCNCC2)cn1 [25a, N-(2-amino-4-chlorophenyl)-5-(piperazin-1-yl)pyrazine-2-carboxamide] | 0 | 0 |  |  |  | 8.7 ± 0.4 |  |
| Nc1cc(Cl)ccc1NC(=O)c1cnc(N2CCN(CCc3c[nH]c4ccccc34)CC2)cn1 [19i, 5-(4-(2-(1H-indol-3-yl)ethyl)piperazin-1-yl)-N-(2-amino-4-chlorophenyl)pyrazine-2-carboxamide] |  |  |  | 2.7 ± 0.2 | 3 ± 0.2 | 1.9 ± 0.1 | 47.5 |

The next lines start with results.

| inhibition at 1 µM (human HDAC2) [%] | inhibition at 1 µM (human HDAC1) [%] | inhibition at 1 µM (human HDAC3/NCOR1) [%] | IC50 (human HDAC2) [µM] | IC50 (human HDAC1) [µM] | IC50 (human HDAC3/NCOR1) [µM] | SMILES | viability at 48 h, 50 µM (in vitro) [%] |
| --- | --- | --- | --- | --- | --- | --- | --- |
|  |  |  | 0.26 ± 0.07 | 0.18 ± 0.01 | 12 ± 1 | CN1CCN(c2cnc(C(=O)Nc3cc(-c4ccccc4F)ccc3N)cn2)CC1 [29d, N-(4-amino-2’-fluoro-[1,1’-biphenyl]-3-yl)-5-(4-methylpiperazin-1-yl)pyrazine-2-carboxamide] | 54 |
|  |  |  | 0.18 ± 0.06 | 0.11 ± 0.01 | 4.4 ± 0.1 | CN1CCN(c2cnc(C(=O)Nc3cc(-c4ccsc4)ccc3N)cn2)CC1 [29a, N-(2-amino-5-(thiophen-3-yl)phenyl)-5-(4-methylpiperazin-1-yl)pyrazine-2-carboxamide] | 65.8 |
|  |  |  | 14 ± 2 | 20 ± 1 | 14 ± 1 | COc1ccc(NC(=O)c2cnc(N3CCNCC3)cn2)c(N)c1 [27c, N-(2-amino-4-methoxyphenyl)-5-(piperazin-1-yl)pyrazine-2-carboxamide] |  |
|  |  |  | 0.34 ± 0.01 | 0.16 ± 0.03 | 6.7 ± 0.5 | Nc1ccc(-c2ccc(F)cc2)cc1NC(=O)c1cnc(N2CCNCC2)cn1 [29c, N-(4-amino-4’-fluoro-[1,1’-biphenyl]-3-yl)-5-(piperazin-1-yl)pyrazine-2-carbox-amide] | 2.2 |
